Measurements reported in publication PMC11364775, “Ion occupancy of the selectivity filter controls opening of a cytoplasmic gate in the K2P channel TALK-2” (Nature Communications, 2024).
Changes are numbered by the printed parent chain. “Also recorded” adds a separate entry of the source.

Key:
[1] = biological target: T1, WT TREK-2 channels (human K2P10.1) (Homo sapiens, UniProt P57789); test: Tail current deactivation kinetics with pore blocker (inside-out patch); type: cell-based
T1 construct: expressed in transfected cells; host or cells: Xenopus laevis oocytes (cRNA injection), excised inside-out patches
T1 sequence (P57789 1-538): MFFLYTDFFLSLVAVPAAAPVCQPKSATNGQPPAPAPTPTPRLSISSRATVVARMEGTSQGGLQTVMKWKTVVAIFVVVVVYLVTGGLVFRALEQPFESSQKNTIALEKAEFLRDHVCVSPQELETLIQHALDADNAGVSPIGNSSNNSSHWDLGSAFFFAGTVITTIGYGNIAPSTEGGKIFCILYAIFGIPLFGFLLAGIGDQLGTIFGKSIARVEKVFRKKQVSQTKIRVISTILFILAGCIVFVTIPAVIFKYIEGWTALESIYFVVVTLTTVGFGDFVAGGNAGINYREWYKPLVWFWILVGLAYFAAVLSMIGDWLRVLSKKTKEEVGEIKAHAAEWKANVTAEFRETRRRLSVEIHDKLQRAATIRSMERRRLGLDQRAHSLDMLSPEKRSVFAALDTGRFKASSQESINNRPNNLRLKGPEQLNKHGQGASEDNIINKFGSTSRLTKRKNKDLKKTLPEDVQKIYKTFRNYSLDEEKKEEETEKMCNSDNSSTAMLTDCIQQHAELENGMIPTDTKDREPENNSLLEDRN

WT TALK-2 channels = biological target: T2, WT TALK-2 channels (Homo sapiens, UniProt Q96T54); test: as above; type: cell-based; parameters: expressed in transfected cells; host or cells: Xenopus laevis oocytes (cRNA injection), excised inside-out patches
T2 sequence (Q96T54 1-332): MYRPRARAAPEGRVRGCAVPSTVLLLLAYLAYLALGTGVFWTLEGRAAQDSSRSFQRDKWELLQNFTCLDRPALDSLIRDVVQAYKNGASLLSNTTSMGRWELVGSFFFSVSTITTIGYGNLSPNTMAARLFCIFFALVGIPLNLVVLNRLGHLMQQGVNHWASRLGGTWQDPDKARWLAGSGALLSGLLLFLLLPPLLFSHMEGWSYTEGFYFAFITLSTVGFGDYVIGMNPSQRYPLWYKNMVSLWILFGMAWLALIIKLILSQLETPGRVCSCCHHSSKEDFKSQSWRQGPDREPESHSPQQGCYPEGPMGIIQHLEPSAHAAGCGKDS
Description: In voltage-gated K^+ (Kv) channels, the closing of the lower gate can be prevented by the binding of blockers such as tetra-pentyl-ammonium (TPenA) in the pore cavity and, thereby, causing a slowing of the deactivation kinetics which is known as the ‘foot in the door’ effect[33],[34]. To test for such a mechanism in TALK-2, we activated the channels with a voltage step to +100 mV in the presence of intracellular Rb^+ followed by a repolarization step to -80 mV (to induce tail currents) with and without the K2P channel pore blocker TPenA. […] We hypothesize, that the two gates are strongly coupled and, therefore, opening the SF gate by depolarization should also open the lower gate, which then consequently would allow blocker (like TPenA) binding within the pore cavity (Fig. 5a cartoon). Upon repolarization, however, the bound TPenA blocker obstructs closure of the lower gate and thereby, hinders the SF from closure/inactivation (gate coupling).

[2] = biological target: T3, TALK-2 L264A mutant channels (Homo sapiens, UniProt Q96T54, L264A)
T3 sequence (Q96T54 1-332 L264A): T2 sequence (Q96T54 1-332) with L264A
Description: Oocytes were surgically removed from anesthetized adult females, treated with type II collagenase (Sigma-Aldrich/Merck, Germany) and manually defolliculated. 50 nl of a solution containing the K^+ channel specific cRNA was injected into Dumont stage V - VI oocytes and subsequently incubated at 17 °C in a solution containing (mM): 54 NaCl, 30 KCl, 2.4 NaHCO3, 0.82 MgSO4 x 7 H2O, 0.41 CaCl2, 0.33 Ca(NO3)2 x 4 H2O and 7.5 TRIS (pH 7.4 adjusted with NaOH/HCl) for 1–7 days before use. Electrophysiological recordings: Excised patch measurements in inside-out configuration under voltage-clamp conditions were performed at room temperature (22 – 24 °C). […] Currents were recorded with an EPC10 amplifier (HEKA electronics, Germany) and sampled at 10 kHz or higher and filtered with 3 kHz (-3 dB) or higher as appropriate for sampling rate.
Recorded currents were analyzed from stable membrane patches at a voltage defined in the respective figure legend or with a voltage protocol as indicated in the respective figure. The fold activation (fold change in (tail) current amplitude) of a ligand (drug or bioactive lipid) was calculated from Eq. 1:1 Fold activationFA=Iactivated/Ibasal where Iactivated represents the stable current level in the presence of a given concentration of a respective ligand and Ibasal the measured current before ligand application. […]

| SMILES | effect of TPenA inhibition on tail current kinetics ([1]; TREK-2) | deactivation time constant τ of tail currents ([1]; intracellular Rb+ with 50 µM TPenA) [ms] | effect of TPenA inhibition on tail current kinetics (WT TALK-2 channels; 2-APB-activated TALK-2 (1.0 mM 2-APB, 1.0 mM TPenA)) | deactivation time constant τ of tail currents (WT TALK-2 channels; intracellular Rb+ with 1.0 mM TPenA, step to +100 mV, repolarization to -80 mV) [ms] | TPenA block of the tail current amplitudes (WT TALK-2 channels; intracellular Rb+, tail currents at -80 mV) | slowing of the deactivation kinetics (WT TALK-2 channels; with ~50 % TPenA block, intracellular Rb+) | Fold activation 1 mM 2-APB ([2]; 1 mM) [fold] | further current increase by 2-APB ([2]; 1.0 mM 2-APB) |
| --- | --- | --- | --- | --- | --- | --- | --- | --- |
| CCCCC[N+](CCCCC)(CCCCC)CCCCC [TPenA, Tetra-pentyl-ammonium chloride] | no effect | 11.2 ± 1.4 | no effect; also recorded: little effect | 7.4 ± 0.4 | ~ 50% | ~ 2.5 fold | – | – |
| NCCOB(c1ccccc1)c1ccccc1 [2-APB, 2-aminoethoxydiphenyl borate] | – | – | – | – | – | – | 2.78 | only a minor further current increase |
